Values joined by “and” are separate entries in the source; they are usually repeats but may differ in a detail not shown here. Identical values can stand only once. Inconclusive results and toxic doses are left out.
Test system: BDF1 mice, P388 leukemia ip, median survival T/C
Assay: NCI In Vivo Anticancer Drug Screen. Data for tumor model P388 Leukemia (intraperitoneal) in B6D2F1 (BDF1) mice
Details: endpoint: median survival time, higher = longer survival
Summary of the method: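 Survival ratio, drug arm over vehicle arm, in mice with a transplanted tumour.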

[1] = dose: 100.0 mg/kg/injection, schedule: Q04DX003 (ip), vehicle: saline with Tween-80
[2] = dose: 200.0 mg/kg/injection, schedule: Q04DX003 (ip), vehicle: saline with Tween-80
[3] = dose: 400.0 mg/kg/injection, schedule: Q04DX003 (ip), vehicle: saline with Tween-80
[4] = dose: 100.0 mg/kg/injection, schedule: Q01DX009 (ip), vehicle: Klucel (hydroxypropylcellulose) (HPC)
[5] = dose: 100.0 mg/kg/injection, schedule: Q04DX003 (ip), vehicle: Klucel (hydroxypropylcellulose) (HPC)
[6] = dose: 200.0 mg/kg/injection, schedule: Q04DX003 (ip), vehicle: Klucel (hydroxypropylcellulose) (HPC)
[7] = dose: 400.0 mg/kg/injection, schedule: Q04DX003 (ip), vehicle: Klucel (hydroxypropylcellulose) (HPC)
[8] = dose: 100.0 mg/kg/injection, schedule: Q01DX001 (ip), vehicle: Klucel (hydroxypropylcellulose) (HPC)
[9] = dose: 50.0 mg/kg/injection, schedule: Q01DX009 (ip), vehicle: saline with Tween-80
[10] = dose: 100.0 mg/kg/injection, schedule: Q01DX009 (ip), vehicle: saline with Tween-80
[11] = dose: 200.0 mg/kg/injection, schedule: Q01DX009 (ip), vehicle: saline with Tween-80
[12] = dose: 400.0 mg/kg/injection, schedule: Q01DX009 (ip), vehicle: saline with Tween-80

Compound: O=c1c2ccccc2[nH]c2ccccc12
- T/C (dose: 50.0 mg/kg/injection, schedule: Q04DX003 (ip), vehicle: saline with Tween-80): 105 % of control
- T/C [1]: 99 % of control
- T/C [2]: 99 % of control
- T/C [3]: 96 % of control

Compound: CCOC(=O)c1sc(NC(C)=O)c(C(=O)OCC)c1C
- T/C [4]: 100 % of control
- T/C (dose: 200.0 mg/kg/injection, schedule: Q01DX009 (ip), vehicle: Klucel (hydroxypropylcellulose) (HPC)): 100 % of control
- T/C (dose: 400.0 mg/kg/injection, schedule: Q01DX009 (ip), vehicle: Klucel (hydroxypropylcellulose) (HPC)): 100 % of control

Compound: CC(C)CSP(=S)(c1cc(Cl)ccc1Cl)c1cc(Cl)ccc1Cl
- T/C (dose: 50.0 mg/kg/injection, schedule: Q01DX009 (ip), vehicle: other): 102 % of control
- T/C (dose: 100.0 mg/kg/injection, schedule: Q01DX009 (ip), vehicle: other): 101 % of control
- T/C (dose: 200.0 mg/kg/injection, schedule: Q01DX009 (ip), vehicle: other): 105 % of control

Compound: CCOC(=O)N1Cc2cc3ccccc3nc2C1CC(=O)O (centres undefined)
- T/C [5]: 100 % of control
- T/C [6]: 100 % of control
- T/C [7]: 104 % of control

Compound: CC1(C)CS(=O)(=O)CC1=O
- T/C (dose: 25.0 mg/kg/injection, schedule: Q01DX001 (ip), vehicle: Klucel (hydroxypropylcellulose) (HPC)): 100 % of control
- T/C (dose: 50.0 mg/kg/injection, schedule: Q01DX001 (ip), vehicle: Klucel (hydroxypropylcellulose) (HPC)): 100 % of control
- T/C [8]: 90 % of control and 104 % of control

Compound: O=[N+]([O-])c1ccc(O)c(C2N(Cc3ccc(N(CCCl)CCCl)cc3)CCCN2Cc2ccc(N(CCCl)CCCl)cc2)c1
- T/C (dose: 12.5 mg/kg/injection, schedule: Q01DX010 (ip), vehicle: carboxymethylcellulose (CMC)): 120 % of control
- T/C (dose: 25.0 mg/kg/injection, schedule: Q01DX010 (ip), vehicle: carboxymethylcellulose (CMC)): 120 % of control
- T/C (dose: 100.0 mg/kg/injection, schedule: Q01DX010 (ip), vehicle: carboxymethylcellulose (CMC)): 165 % of control

Compound: CC(=O)[S][Pb]([c]1ccccc1)([c]1ccccc1)[c]1ccccc1
- T/C (dose: 4.0 mg/kg/injection, schedule: Q01DX009 (ip), vehicle: Klucel (hydroxypropylcellulose) (HPC)): 114 % of control
- T/C (dose: 5.9 mg/kg/injection, schedule: Q01DX009 (ip), vehicle: Klucel (hydroxypropylcellulose) (HPC)): 110 % of control
- T/C (dose: 9.0 mg/kg/injection, schedule: Q01DX009 (ip), vehicle: Klucel (hydroxypropylcellulose) (HPC)): 106 % of control

Compound: OCC1CSCN1 (centres undefined)
- T/C (dose: 50.0 mg/kg/injection, schedule: Q04DX002 (ip), vehicle: saline): 100 % of control
- T/C (dose: 100.0 mg/kg/injection, schedule: Q04DX002 (ip), vehicle: saline): 103 % of control
- T/C (dose: 200.0 mg/kg/injection, schedule: Q04DX002 (ip), vehicle: saline): 98 % of control

Compound: Nc1nc2c(ncn2C2CC(O)C(CO)O2)c(=O)n1N (centres undefined)
- T/C (dose: 12.5 mg/kg/injection, schedule: Q01DX009 (ip), vehicle: saline with Tween-80): 97 % of control
- T/C (dose: 25.0 mg/kg/injection, schedule: Q01DX009 (ip), vehicle: saline with Tween-80): 111 % of control
- T/C [9]: 108 % of control
- T/C [10]: 101 % of control

Compound: CCCCOC1OCN(c2ccc(OC)cc2)CC1(C)C (centres undefined)
- T/C (dose: 50.0 mg/kg/injection, schedule: Q01DX009 (ip), vehicle: saline + alcohol): 114 % of control
- T/C (dose: 100.0 mg/kg/injection, schedule: Q01DX009 (ip), vehicle: saline + alcohol): 107 % of control
- T/C (dose: 200.0 mg/kg/injection, schedule: Q01DX009 (ip), vehicle: saline + alcohol): 118 % of control

Compound: CC(C)(C)NC(=O)NCc1cccnc1
- T/C [1]: 91 % of control
- T/C [2]: 95 % of control
- T/C [3]: 100 % of control

Compound: CCCCCCCCCCCCCCCCCC(N)=O
- T/C [5]: 90 % of control
- T/C [6]: 95 % of control
- T/C [7]: 100 % of control

Compound: CC1CCCC[N-]1.CC1CCCC[N-]1.[Cl][Pt+2][Cl] (centres undefined)
- T/C (dose: 50.0 mg/kg/injection, schedule: Q01DX009 (ip), vehicle: Klucel (hydroxypropylcellulose) (HPC)): 103 % of control
- T/C [4]: 97 % of control

Compound: C=CN1C(=O)NC(C)(CC(C)C)C1=O (centres undefined)
- T/C [10]: 93 % of control
- T/C [11]: 104 % of control
- T/C [12]: 104 % of control

Compound: O=C(/C=C\c1ccnc2ccccc12)c1ccc([N+](=O)[O-])cc1
- T/C (dose: 12.5 mg/kg/injection, schedule: Q04DX003 (ip), vehicle: water): 96 % of control
- T/C (dose: 25.0 mg/kg/injection, schedule: Q01DX009 (ip), vehicle: water): 114 % of control
- T/C (dose: 25.0 mg/kg/injection, schedule: Q04DX003 (ip), vehicle: water): 90 % of control
- T/C (dose: 50.0 mg/kg/injection, schedule: Q01DX009 (ip), vehicle: water): 117 % of control
- T/C (dose: 50.0 mg/kg/injection, schedule: Q04DX003 (ip), vehicle: water): 115 % of control
- T/C (dose: 100.0 mg/kg/injection, schedule: Q01DX009 (ip), vehicle: water): 95 % of control
- T/C (dose: 100.0 mg/kg/injection, schedule: Q04DX003 (ip), vehicle: water): 106 % of control and 111 % of control
- T/C (dose: 200.0 mg/kg/injection, schedule: Q01DX009 (ip), vehicle: water): 98 % of control
- T/C (dose: 200.0 mg/kg/injection, schedule: Q04DX003 (ip), vehicle: water): 100 % of control
- T/C (dose: 400.0 mg/kg/injection, schedule: Q01DX009 (ip), vehicle: water): 96 % of control
- T/C (dose: 400.0 mg/kg/injection, schedule: Q04DX003 (ip), vehicle: water): 100 % of control

Compound: CSCc1cccc(CO)c1
- T/C [10]: 110 % of control
- T/C [11]: 100 % of control
- T/C [12]: 105 % of control

Compound: O=C(Nc1ccc(C2=NCCCN2)cc1)c1ccc(C(=O)Nc2ccc(C3=NCCCN3)cc2)nc1
- T/C (dose: 0.85 mg/kg/injection, schedule: Q01DX009 (ip), vehicle: saline): 92 % of control
- T/C (dose: 1.3 mg/kg/injection, schedule: Q01DX009 (ip), vehicle: saline): 103 % of control
- T/C (dose: 3.0 mg/kg/injection, schedule: Q01DX009 (ip), vehicle: saline): 155 % of control
- T/C (dose: 5.0 mg/kg/injection, schedule: Q01DX009 (ip), vehicle: saline): 175 % of control
- T/C (dose: 8.0 mg/kg/injection, schedule: Q01DX009 (ip), vehicle: saline): 195 % of control
- T/C (dose: 10.0 mg/kg/injection, schedule: Q01DX009 (ip), vehicle: saline with Tween-80): 122 % of control
- T/C (dose: 12.0 mg/kg/injection, schedule: Q01DX009 (ip), vehicle: saline): 153 % of control
- T/C (dose: 12.5 mg/kg/injection, schedule: Q04DX003 (ip), vehicle: saline): 115 % of control
- T/C (dose: 16.5 mg/kg/injection, schedule: Q04DX003 (ip), vehicle: saline): 118 % of control
- T/C (dose: 18.0 mg/kg/injection, schedule: Q01DX009 (ip), vehicle: saline): 226 % of control
- T/C (dose: 25.0 mg/kg/injection, schedule: Q01DX009 (ip), vehicle: saline): 196 % of control

Compound: CC[C@](C)(O)C(=O)O[C@H]1C(=O)O[C@@H]2C[C@H]3C(C)=C[C@H](O)[C@@H](O)[C@]3(C)[C@H]3[C@@]4(O)OC[C@]32[C@@H]1[C@@H](C)[C@H]4O
- T/C (dose: 1.0 mg/kg/injection, schedule: Q01DX010 (ip), vehicle: other): 113 % of control
- T/C (dose: 4.0 mg/kg/injection, schedule: Q01DX010 (ip), vehicle: other): 113 % of control

Compound: C[As](C)SCC1OC2OC(C)(C)OC2C2OC(C)(C)OC12 (centres undefined)
- T/C [9]: 110 % of control and 123 % of control

Compound: NOCc1csc(N)n1
- T/C (dose: 75.0 mg/kg/injection, schedule: Q04DX003 (ip), vehicle: saline): 91 % of control
- T/C (dose: 300.0 mg/kg/injection, schedule: Q04DX003 (ip), vehicle: saline): 87 % of control

Compound: Cc1nc(Cl)c2c(n1)Oc1nc(C)nc(Cl)c1C2c1ccc(Cl)cc1
- T/C [8]: 88 % of control and 100 % of control
- T/C (dose: 200.0 mg/kg/injection, schedule: Q01DX001 (ip), vehicle: Klucel (hydroxypropylcellulose) (HPC)): 95 % of control
- T/C (dose: 400.0 mg/kg/injection, schedule: Q01DX001 (ip), vehicle: Klucel (hydroxypropylcellulose) (HPC)): 88 % of control and 90 % of control

Compound: O=C1/C(=C/c2ccccc2)CCCC1/C=C/c1ccccc1 (centres undefined)
- T/C [5]: 100 % of control
- T/C [6]: 104 % of control
- T/C [7]: 104 % of control

Compound: N#Cc1c(Cl)c(Cl)c(OC(=O)c2ccc(Cl)c(Cl)c2)c(Cl)c1Cl
- T/C [9]: 117 % of control
- T/C [10]: 108 % of control
- T/C [11]: 94 % of control

Compound: O=C(O)c1ccc(O)c(=O)cc1
- T/C (dose: 12.5 mg/kg/injection, schedule: Q01DX001 (ip), vehicle: saline with Tween-80): 102 % of control

Compound: COc1cccc(CCNC(=O)CC#N)c1
- T/C [10]: 100 % of control
- T/C [1]: 110 % of control
- T/C [11]: 110 % of control
- T/C [2]: 100 % of control
- T/C [12]: 100 % of control
- T/C [3]: 100 % of control
